{"source": "patent US7705032B2", "about": "“Method and composition for treating burned skin” (Lil Brat Pharmaceuticals of Marlette, MI, priority 2003, dated 2010)", "tested_on": "sunburned skin", "experiment": "topical treatment of sunburned skin", "assay_type": "in vivo, human being", "details": "compared with other anti-inflammatory drugs, such as Motrin® and Tolectin®", "from_the_text": "The present invention provides a method and composition for treating sunburned skin of a human being. The composition includes a mixture of indomethacin and a moisturizing lotion. […] It is believed that the skin, with the presence of the topical formulation, acts as a reservoir, absorbing large amounts of the indomethacin and slowly releasing the indomethacin into the skin and to other tissues. The skin may actually act as a depot or reservoir for the indomethacin. It is believed that the indomethacin is stabilized and solubilized by the moisturizing lotion wherein the moisturizing lotion enhances the absorption of the indomethacin through the skin and accordingly permits the drug to be employed topically for inflammation of the sunburned skin. […] This mixture level allows the Cetaphil® to act as a proper stabilizer and solubilizer for the indomethacin. A stronger or weaker indomethacin mixture may be created depending on the treatment. However, experimentation has shown that the above-noted mixture remains an effective mixture for the treatment of sunburned skin. In use, the disclosed amounts of indomethacin and Cetaphil® are mixed to create the appropriate composition. […] The moisturizing lotion provides moisture and a cooling sensation to the sunburned skin, and the indomethacin reduces the inflammation to the skin caused by the sunburn. […]", "data": [{"compound": "COc1ccc2c(c1)c(CC(=O)O)c(C)n2C(=O)c1ccc(Cl)cc1", "note": "[indomethacin, 1-(p-chlorobenzoyl)-5-methoxy-2-methylindole-3-acetic acid]", "values": [{"measurement": "relieving sunburned skin", "result": "far better results"}]}]}
